Results published in patent publication US5504190A, “Equimolar multiple oligomer mixtures, especially oligopeptide mixtures” (priority 1994, dated 1996).
Values after ≈ are worked out from the molar mass of the structure shown. Read-outs that look alike come from different tables or passages of the source. Peptide text beside a SMILES is read from it.

Columns and labels:
[1] = test system: Candida albicans ATCC 10231; test: antifungal assay, growth inhibition of C. albicans (OD 620 nm); type: cell-based
Protocol: Antifungal studies were carried out Candida albicans ATCC 10231 as the target microbe. The yeast culture was spread onto YM agar plates and incubated at 30° C. for 48 hours. Three colonies of this culture (about 1 mm in diameter each) were then inoculated in 5 ml of 1 X PBS solution. The suspension was vortexed and diluted 10-fold in YM broth, for an approximate final concentration of 10^5 to 5×10^5 CFU (colony forming units)/ml.
Actual concentrations of yeast cultures were determined by plating 100 μl of different solutions of the culture solution (10^-3, 10^-4 and 10^-5) onto solid YM agar plates. After 48 hours of incubation at 30° C., CFU formed were counted from each plate.
The assays were carried out in 96-well tissue culture plates. Eight wells containing only medium of YM broth served as negative controls, whereas eight wells containing medium and yeast culture served as positive controls. These controls were used to detect possible medium contamination and to provide a measure of uninhibited growth of the yeast.
For screening studies, oligopeptide mixtures were added to the yeast suspension in duplicates to reach a final concentration of 1.5 mg/ml. […] The plates were incubated over a period of 48 hours at 30° C., and the optical density (OD) at 24 and 48 hours was determined at 620 nm.

[2] = test system: Herpes Simplex Virus Type 1 (HSV-1); test: HSV-1 plaque assay on Vero cell monolayers; type: cell-based; settings: Table 10
Protocol: The screenings utilized a plaque assay in which 24-well plates containing Vero (monkey kidney) cell monolayers were overlaid with 400 μg/ml of each peptide or mixture in M-199V (medium and newborn calf serum). The plates were incubated for two hours at 37° C.
Each well was thereafter aspirated and immediately overlaid with 400 μg of peptide or mixture in DMEM-O (Dulbeco's modified Eagle's medium and pooled human gamma globulin) and incubated for 48 hours. […] At 48 hours, the plate wells were aspirated, rinsed, fixed and stained. Plaque formation, if present, was tallied and recorded.
The PFU's per well of six controls were averaged and represent 100 percent plaque formation at approximately 50 PFU's per well. The average PFU's per screened peptide or mixture (duplicate wells) quantitatively represented percent viral inhibition of plaque formation or infection. For example, a count of 10 PFU's of a screened peptide compared to the control of 50 PFU's would represent 20 percent plaque formation and 80 percent plaque inhibition.

[3] = test system: Vero (monkey kidney) cell monolayers; type: cell-based
[4] = molecular target: mAb 19B10; test: competitive ELISA, inhibition of mAb 19B10 binding to plate-adsorbed peptide SEQ ID NO:89; settings: as the positions were defined
Description: The antigenic determinant recognized by mAb 19B10 has the sequence Asp-Val-Pro-Asp-Tyr-Ala (SEQ ID NO:88). […].
Oligopeptide sets were screened in the general manner discussed previously, except that rather than using 400 mixture sets whose first two positions were defined and whose last four were equimolar mixtures for the first screen, 324 such N-acetyl C-amide sets were used based on mixtures of eighteen amino acids. Tryptophan and cysteine were not included with these mixture.

[5] = test system: Staphylococcus aureus (ATCC 29213); test: microbe, parasite or virus in culture
Protocol: (§1) Escherichia coli (ATCC 25922) was used as Gram-negative (-) and Staphylococcus aureus (ATCC 29213) as Gram-positive (+) bacteria. Bacteria were grown overnight (about 18 hours) at 37° C. in Mueller-Hinton (MH) broth. This culture was reinoculated and incubated at 37° C. to reach the exponential phase of bacteria growth; i.e., a final bacterial suspension containing about 10^5 to 5×10^5 colony-forming units (CFU)/ml. The concentration of cells was established by plating 100 μl of different dilutions of the culture solution (e.g., 10^-2, 10^-3 and 10^-4) onto solid agar plates. Following an overnight (about 18 hours) incubation at 37° C., the CFU thus formed were counted on each agar plate.
(§2) 96-Well tissue culture plates were utilized, with eight wells per plate containing only medium as control blanks, whereas eight other wells contained medium plus cells as a positive growth control. These controls were used to detect possible medium contamination and to provide a measure of uninhibited growth of the microorganisms.
(§3) For initial screening studies, oligopeptide sets were added to the bacterial suspension to reach a final concentration of 1 mg/ml.
(§4) The plates were incubated overnight (about 18 hours) at 37° C., and the optical density (OD) determined at 620 nm after different times of incubation.

[6] = test system: human red blood cells; type: cell-based
Protocol: Assays were carried out in 96-well culture tissue plates. Four wells per plate contained 125 μl of a non-peptide positive control of the surfactant Triton X-100 (poly)oxyethanol (9) octyl phenyl ether; 1 percent in deionized water!, and four wells per plate contained 115 μl of a control blank of phosphate-buffered saline (PBS). The hemolytic peptide melittin was used as comparative control. The controls served to detect possible contamination and to calculate the percent hemolysis of each peptide.
Human red blood cells (RBC's) were washed with PBS and centrifuged to separate them from the serum. The cells are then resuspended in PBS to a final suspension of 0.5 percent RBC. This suspension (125 μl) was added to the peptide mixture and control solutions. The plates were incubated at 37° C. for one hour and centrifuged at 2800 rpm for five minutes. The release of hemoglobin resulting from the cell lysis was determined by measuring the OD at 414 nm of 100 μl of the supernatant.

[7] = test system: Escherichia coli (ATCC 25922); test: antimicrobial assay, growth inhibition of E. coli (OD 620 nm); type: cell-based; settings: Tables 1 and 2
Protocol: as §1, §2, §3, §4

[8] = molecular target: monoclonal antibody (mAb) 125-10F3; test: competitive ELISA, inhibition of mAb 125-10F3 binding to plate-adsorbed polypeptide SEQ ID NO:1
Description: Monoclonal antibody (mAb) 125-10F3 was used in these studies, which binds specifically to a 13-residue polypeptide […](SEQ ID NO:1) Appel et al., J. Immunol., 144:976-983 (1990)!. The antigenic determinant recognized by the mAb is Pro-Tyr-Pro-Asn-Leu-Ser (SEQ ID NO:2), determined previously using individual omission analogs of the polypeptide as is seen in FIG. 2.
The peptide library was screened utilizing a competitive ELISA system that measured the inhibition in solution of the binding of the mAb to polypeptide SEQ ID NO:1 adsorbed to an assay plate by each individual element of the synthetic combinatorial library. […] Screening data for an exemplary eighteen of the 400 sets are shown in FIG. 4, with arrows at the two best binding sequences.
The concentration of the inhibiting oligopeptide sets at which 50 percent of the mAb was inhibited in its binding to the polypeptide (IC-50) was determined.

[9] = 7-mer studies, Tables 5 and 6 and parent 6-mer

What does the source list for `C[C@@H]1[C@H](O)[C@@H](C)/C=C/C=C/C=C/C=C/C=C/C=C/C=C/[C@H](O[C@@H]2O[C@H](C)[C@@H](O)[C@H](N)[C@@H]2O)C[C@@H]2O[C@](O)(C[C@@H](O)C[C@@H](O)[C@H](O)CC[C@@H](O)C[C@@H](O)CC(=O)O[C@H]1C)C[C@H](O)[C@H]2C(=O)O` [Amphotericin B, reference compound]?
IC50 ([1]; Candida albicans, ATCC10231, Table 9): 0.5 µg/mL (≈ 0.541 µM); MIC ([1]; Candida albicans, ATCC10231, Table 9, read-out: MIC): 2 to 4 µg/mL (≈ 2.16 to 4.33 µM)

`C[C@@H]1[C@H](O)[C@@H](C)/C=C/C=C/CC/C=C/C=C/C=C/C=C/[C@H](O[C@@H]2O[C@H](C)[C@@H](O)[C@H](N)[C@@H]2O)C[C@@H]2O[C@](O)(C[C@@H](O)[C@H](O)CC[C@@H](O)C[C@@H](O)C[C@@H](O)CC(=O)O[C@H]1C)C[C@H](O)[C@H]2C(=O)O` [Nystatin, reference compound] was tested. Which MIC ([1]; Candida albicans, ATCC10231) did it give?
Its MIC is 2 to 4 µg/mL (≈ 2.16 to 4.32 µM).

Which results are given for `CC(=O)N[C@@H](CCCNC(=N)N)C(=O)N[C@@H](CCCNC(=N)N)C(=O)N[C@@H](Cc1c[nH]c2ccccc12)C(=O)N[C@@H](Cc1c[nH]c2ccccc12)C(=O)N[C@@H](CS)C(=O)N[C@@H](CS)C(N)=O` [RRWWCC] (Ac-RRWWCC-NH2)?
concentration for 100 Percent Inhibition [2]: 1 µg/mL; Toxic Concentration [3]: 10 µg/mL

“Ac-DVPDYA-NH2 [Ac-Asp-Val-Pro-Asp-Tyr-Ala-NH2]” was tested. Which IC50 [4] did it give?
The IC50 was 30 nM.

What does the source list for Ac-FRWLLF-NH2 [FRWLLF]?
IC-50 ([5]; Tables 3 and 4): 11 µg/mL; MIC ([5]; Tables 3 and 4): 9 to 18 µg/mL; HD-50 [6]: 34 µg/mL

For Ac-FRWLLK-NH2 [FRWLLK], which HD-50 [6] is on record?
Its HD-50 is 356 µg/mL.

What about the IC-50 [7] of the same compound?
The IC-50 was 5 µg/mL.

And the MIC [7]?
The MIC was 5 to 10 µg/mL.

How did the IC-50 ([5]; Tables 3 and 4) turn out when Ac-FRWLLR-NH2 [FRWLLR] was run?
Its IC-50 is 13 µg/mL.

And the MIC ([5]; Tables 3 and 4)?
The MIC was 24 to 48 µg/mL.

And the HD-50 [6]?
Its HD-50 is 171 µg/mL.

And the IC-50 [7]?
The IC-50 was 4 µg/mL.

What about the MIC [7] of the same compound?
Its MIC is 5 to 10 µg/mL.

What does the source list for Ac-IRRWWRF-NH2 [IRRWWRF]?
IC-50 [5, 9]: 4.7 µg/mL; MIC [5, 9]: 4 to 8 µg/mL; HD-50 [6]: 142 µg/mL

Which IC-50 ([1]; Table 9) does the source give for Ac-KRRWWRF-NH2 [KRRWWRF] here?
The IC-50 was 40 µg/mL.

What about the MIC ([1]; Table 9) of the same compound?
Its MIC is 45 to 62 µg/mL.

Which results are given for “Ac-PYPNLS-NH2 [Ac-Pro-Tyr-Pro-Asn-Leu-Ser-NH2]”?
IC50 ([8]; iterative screening and control study of Example 2, read-out: IC-50 (concentration at which 50 percent of the mAb was inhibited in its binding to the polypeptide)): 10 nM; IC50 ([8]; later study completing the Ac-Tyr-Pro series ("in this study"), read-out: IC-50): 40 nM

How did the IC-50 ([5]; Tables 3 and 4) turn out when Ac-RRWWCA-NH2 [RRWWCA] was run?
The IC-50 was 8.4 µg/mL.

And the MIC ([5]; Tables 3 and 4)?
The MIC was 9 to 18 µg/mL.

And the “concentration for 100 Percent Inhibition” value [2]?
The value was 1 µg/mL.

What about the “Toxic Concentration” value [3] of the same compound?
The value was 25 µg/mL.

With Ac-RRWWCF-NH2 [RRWWCF] as the compound, how does the “concentration for 100 Percent Inhibition” value [2] read?
Its value is 5 µg/mL.

What about the “Toxic Concentration” value [3] of the same compound?
Its value is 10 µg/mL.

What does the source list for Ac-RRWWCG-NH2 [RRWWCG]?
concentration for 100 Percent Inhibition [2]: 1 µg/mL; Toxic Concentration [3]: 10 µg/mL

Which results are given for Ac-RRWWCH-NH2 [RRWWCH]?
IC-50 ([5]; Tables 3 and 4): 6.2 µg/mL; MIC ([5]; Tables 3 and 4): 5.5 to 11 µg/mL; HD-50 [6]: 128 µg/mL
